Tested on: HepG2 ERK1/2 phosphorylation, Western blot imaging
Assay: phospho-ERK1/2 induction in hepatoma cells – cell-based, HepG2, Western blot imaging, cherry-pick, mechanism study for Trib1 inducer project, late-stage follow-up (AID 1053148)
Conditions: stronger effect = higher value

SMILES: CN1C(=O)c2cc(NC(=O)c3ccc(C(F)(F)F)cc3)ccc2OC[C@@H]2O[C@H](CC(=O)NC3Cc4ccccc4C3)CC[C@@H]21
- fold induction x10: 2
